Structures can show the parent of a compound that is named as a salt. Where two headings read alike, the source gives them in different places.
Legend:
Type in all cases: cell-based
[1] = tested on: HCT-116 human colon carcinoma cells; test: Cytotoxicity (sulphorodamine B) on HCT-116 tumor cells; settings: HCT-116 cells, 24 h treatment, then 48 h in drug-free medium, read-out: IC50 ± SD, HCT-116
Description: (§1) Tumor cells were seeded in 96-well tissue culture plates at approximately 10% confluence and were allowed to attach and recover for at least 24 h. […] The plates were incubated for 24 h at 37° C. At the end of the treatment, for NB4 tumor cells in suspension, the procedure was performed as follows: medium culture was removed by centrifugation of the plates at 1600×g for 10 min and the surnatant was removed. 250 μl PBS were added, then the plates were centrifuged at 1600×g for 10 min, the surnatant was removed. […] The plates were centrifuged again at 1600×g for 10 min, the medium culture was removed and 200 μl PBS and 50 μl of cold 80% TCA were added. The plates were incubated on ice for at least 1 h. TCA was removed, the plates were washed 3 times for immersion in distilled-water and dried before on paper, then in a thermostater at 40° C. Subsequently 200 μl of 0.4% sulphorodamine B in 1% acetic acid were added. The plates were incubated at room temperature for other 30 min. Sulphorodamine B was removed, the plates were washed for immersion in 1% acetic acid for 3 times, then they were washed and dried on paper. 200 μl Tris 10 mM were added, the plates were kept under stirring for 20 min. The survival cell was determined as optical density by a Multiskan spectrofluorimeter at 540 nm. […] Also the last day of the assay, the surnatant was removed without centrifugation.
(§2) The amount of cells killed was calculated as the percentage decrease in sulphorodamine B binding compared with control cultures.

[2] = tested on: NB4 human promyelocitic leukaemia; test: Cytotoxicity (sulphorodamine B) on NB4 tumor cells; settings: then 48 h in drug-free medium, read-out: IC50 ± SD, NB4
Description: To test the effects of the compounds on cell growth, NB4 human promyelocitic leukaemia, NCI-H460 non-small cell carcinoma cells and HCT-116 human colon carcinoma cells were used. NB4 and NCI-H460 tumor cells were grown RPMI 1640 containing 10% fetal bovine serum (GIBCO), whereas HCT-116 tumor cells were grown in McCoy's 5A containing 10% fetal bovine serum (GIBCO).
Tumor cells were seeded in 96-well tissue culture plates at approximately 10% confluence and were allowed to attach and recover for at least 24 h. […] The plates were incubated for 24 h at 37° C. At the end of the treatment, for NB4 tumor cells in suspension, the procedure was performed as follows: medium culture was removed by centrifugation of the plates at 1600×g for 10 min and the surnatant was removed. 250 μl PBS were added, then the plates were centrifuged at 1600×g for 10 min, the surnatant was removed. 200 μl/well of medium culture RPMI 1640 containing 10% FCS were added and the plates were incubated at 37° C. for other 48 h. The plates were centrifuged again at 1600×g for 10 min, the medium culture was removed and 200 μl PBS and 50 μl of cold 80% TCA were added. The plates were incubated on ice for at least 1 h. TCA was removed, the plates were washed 3 times for immersion in distilled-water and dried before on paper, then in a thermostater at 40° C. Subsequently 200 μl of 0.4% sulphorodamine B in 1% acetic acid were added. The plates were incubated at room temperature for other 30 min. Sulphorodamine B was removed, the plates were washed for immersion in 1% acetic acid for 3 times, then they were washed and dried on paper. 200 μl Tris 10 mM were added, the plates were kept under stirring for 20 min. The survival cell was determined as optical density by a Multiskan spectrofluorimeter at 540 nm. For the tumor cells in adhesion (NCI-H460 and HCT-116), the procedure was as above mentioned, except that the at the end of the treatment, the plates were washed by remotion of the surnatant and addition of PBS 3 times and not by centrifugation. Also the last day of the assay, the surnatant was removed without centrifugation.
as §2

[3] = tested on: NCI-H460 non-small cell carcinoma cells; test: Cytotoxicity (sulphorodamine B) on NCI-H460 tumor cells; settings: 24 h treatment, then 48 h in drug-free medium, read-out: IC50 ± SD, NCI-H460
Description: as §1, §2

[4] = tested on: NB4, NCI-H460 and HCT-116 tumor cells; test: Cytotoxicity summarised over the three tumor cell lines; settings: Homo sapiens; mean over NB4, NCI-H460, HCT-116; 24 h of treatment
Description: as §1, §2

[5] = Homo sapiens, NB-4, 24 h treatment

Structure (SMILES) | IC50 ([1]; Homo sapiens) [nM] | IC50 [2, 5] [nM] | IC50 ([3]; Homo sapiens) [nM] | IC50 [4] [nM] | IC50 [1] [nM] | IC50 ([2]; 24 h treatment) [nM] | IC50 [3] [nM]
O=C(CCCCC(O)C(=O)Nc1ccccc1)NO (racemic) [Compound 5a, (±)-2-Hydroxyheptanedioic acid 7-hydroxyamide 1-phenylamide] | 8600 ± 200 | 3700 ± 600 | 13700 ± 2600 | – | – | – | –
COC(CCCCC(=O)NO)C(=O)Nc1ccccc1 (racemic) [Compound 5b, (±)-2-Methoxyheptanedioic acid 7-hydroxyamide 1-phenylamide] | 5000 ± 100 | 3500 ± 400 | 5700 ± 500 | – | – | – | –
C=CCOC(CCCCC(=O)NO)C(=O)Nc1ccccc1 (racemic) [Compound 5c, (±)-2-Allyloxyheptanedioic acid 7-hydroxyamide 1-phenylamide] | 4300 ± 200 | 4500 ± 400 | 8600 ± 300 | – | – | – | –
C=C(C)COC(CCCCC(=O)NO)C(=O)Nc1ccccc1 (racemic) [Compound 5d, (±)-2-(2-Methylallyloxy)heptanedioic acid 7-hydroxyamide 1-phenylamide] | 12400 ± 200 | 9600 ± 800 | 14700 ± 1600 | – | – | – | –
CCCOC(CCCCC(=O)NO)C(=O)Nc1ccccc1 (racemic) [Compound 5e, (±)-2-Propoxyheptanedioic acid 7-hydroxyamide 1-phenylamide] | 8500 ± 300 | 4100 ± 300 | 10400 ± 1200 | – | – | – | –
O=C(CCCCC(OCc1ccccc1)C(=O)Nc1ccccc1)NO (racemic) [Compound 5f, (±)-2-Benzyloxyheptanedioic acid 7-hydroxyamide 1-phenylamide] | 2400 ± 60 | > 5000 | 5500 ± 600 | – | – | – | –
COc1ccc(COC(CCCCC(=O)NO)C(=O)Nc2ccccc2)cc1 (racemic) [Compound 5g, (±)-2-(4-Methoxybenzyloxy)heptanedioic acid 7-hydroxyamide 1-phenylamide] | 1300 ± 60 | 1000 ± 100 | 2000 ± 300 | – | – | – | –
O=C(CCCCCC(O)C(=O)Nc1ccccc1)NO (racemic) [Compound 9a, (±)-2-Hydroxyoctanedioic acid 8-hydroxyamide 1-phenylamide] | 700 ± 20 | 500 ± 30 | 1000 ± 90 | < 1000 | – | – | –
COC(CCCCCC(=O)NO)C(=O)Nc1ccccc1 (racemic) [Compound 9b, (±)-2-Methoxyoctanedioic acid 8-hydroxyamide 1-phenylamide] | 900 ± 40 | 500 ± 30 | 1200 ± 100 | < 1000 | – | – | –
C=CCOC(CCCCCC(=O)NO)C(=O)Nc1ccccc1 (racemic) [Compound 9c, (±)-2-Allyloxyoctanedioic acid 8-hydroxyamide 1-phenylamide] | 1000 ± 100 | 400 ± 20 | 1800 ± 100 | – | – | – | –
COc1ccc(COC(CCCCCC(=O)NO)C(=O)Nc2ccccc2)cc1 (racemic) [Compound 9d, (±)-2-(4-Methoxybenzyloxy)octanedioic acid 8-hydroxyamide 1-phenylamide] | 200 ± 6 | 100 ± 10 | 500 ± 20 | < 1000 | – | – | –
O=C(CCCCCC(OCc1ccc(C(F)(F)F)cc1)C(=O)Nc1ccccc1)NO (racemic) [Compound 9e, (±)-2-(4-Trifluoromethylbenzyloxy)octanedioic acid 8-hydroxyamide 1-phenylamide] | 400 ± 30 | 200 ± 2 | 500 ± 60 | < 1000 | – | – | –
O=C(CCCCCC(OCc1ccc(Br)cc1)C(=O)Nc1ccccc1)NO (racemic) [Compound 9f, (±)-2-(4-Bromobenzyloxy)octanedioic acid 8-hydroxyamide 1-phenylamide] | 300 ± 50 | 60 ± 4 | 500 ± 40 | < 1000 | – | – | –
Cc1ccc(COC(CCCCCC(=O)NO)C(=O)Nc2ccccc2)cc1 (racemic) [Compound 9g, (±)-2-(4-Methylbenzyloxy)octanedioic acid 8-hydroxyamide 1-phenylamide] | 300 ± 9 | 100 ± 10 | 600 ± 10 | < 1000 | – | – | –
COc1cccc(COC(CCCCCC(=O)NO)C(=O)Nc2ccccc2)c1 (racemic) [Compound 9h, (±)-2-(3-Methoxybenzyloxy)octanedioic acid 8-hydroxyamide 1-phenylamide] | 600 ± 100 | 200 ± 7 | 600 ± 30 | < 1000 | – | – | –
COc1cccc(COC(CCCCCC(=O)NO)C(=O)N(Cc2cccc(OC)c2)c2ccccc2)c1 (racemic) [Compound 9i, (±)-2-(3-methoxybenzyloxy)octanedioic acid 8-hydroxyamide 1-[(3-methoxybenzyl)phenylamide]] | – | – | – | – | 7500 ± 400 | 4000 ± 700 | 7400 ± 500
O=C(CCCCCCC(O)C(=O)Nc1ccccc1)NO (racemic) [Compound 13a, (±)-2-Hydroxynonanedioic acid 9-hydroxyamide 1-phenylamide] | 1600 ± 50 | 900 ± 100 | 3600 ± 800 | – | – | – | –
COC(CCCCCCC(=O)NO)C(=O)Nc1ccccc1 (racemic) [Compound 13b, (±)-2-Methoxynonanedioic acid 9-hydroxyamide 1-phenylamide] | 1100 ± 9 | 800 ± 30 | 1900 ± 100 | – | – | – | –
C=CCOC(CCCCCCC(=O)NO)C(=O)Nc1ccccc1 (racemic) [Compound 13c, (±)-2-Allyloxynonanedioic acid 9-hydroxyamide 1-phenylamide] | 1000 ± 50 | 600 ± 60 | 1500 ± 300 | – | – | – | –
COc1cc2cc(c1)COc1ccccc1NC(=O)C(CCCCCC(=O)NO)OCC=C2 (racemic) [Compound 32, (±)-6-(19-Methoxy-11-oxo-3,13-dioxa-10-azatricyclo[15.3.1.04,9]henicosa-1(21),4(9),5,7,15,17,19-heptaen-12-yl)hexanoic acid hydroxyamide] | 400 ± 30 | – | 900 ± 80 | < 1000 | – | – | –
O=C(CCCCCC1OCCCCCCOc2ccncc2NC1=O)NO (racemic) [Compound 46, (±)-6-(14-Oxo-6,7,8,9,10,11,14,15-octahydro-13H-5,12-dioxa-2,15-diazabenzocyclotridecen-13-yl)hexanoic acid hydroxyamide] | 13000 ± 1700 | – | 20000 | – | – | – | –
CO[C@H](CCCCC(=O)NO)C(=O)Nc1ccccc1 [(R)-5b, 2-(R)-Methoxyheptanedioic acid 7-hydroxyamide 1-phenylamide] | 7800 ± 500 | 4000 ± 600 | 9600 ± 500 | – | – | – | –
CO[C@@H](CCCCC(=O)NO)C(=O)Nc1ccccc1 [(S)-5b, 2-(S)-Methoxyheptanedioic acid 7-hydroxyamide 1-phenylamide] | 6800 ± 300 | 3500 ± 300 | 7800 ± 500 | – | – | – | –
COc1ccc(CO[C@@H](CCCCCC(=O)NO)C(=O)Nc2ccccc2)cc1 [(S)-9d, 2-(S)-(4-Methoxybenzyloxy)octanedioic acid 8-hydroxyamide 1-phenylamide] | – | – | – | – | 200 ± 7 | 100 ± 2 | 400 ± 30
O=C(CCCCC[C@@H]1NCCCCCCOc2ccccc2NC1=O)NO [(S)-42a, 6-(6-Oxo-5,6,7,8,9,10,11,12,13,14-decahydro-15-oxa-5,8-diazabenzocyclotridecen-7-(S)yl)hexanoic acid hydroxyamide hydrochloride] | 800 ± 70 | – | 1100 ± 70 | – | – | – | –

— patent publication US20100113504A1, “AMIDE COMPOUNDS AND THEIR USE AS ANTITUMOR AGENTS” (SIGMA-TAU INDUSTRIE FARMACEUTICHE RIUNITE S.P.A., priority 2007, published 2010)
